# Test system: ability of TGF-β to promote transcription of a Type I collagen gene
# Experiment: Inhibition of the ability of TGF-β to promote transcription of a Type I collagen gene (COL-Luc reporter gene assay)
# Type: cell-based
# Details: final concentration 1 μM; TGF-β added; normal human fetal skin fibroblast transfected with COL-Luc; 40 hours; read-out: Inhibition percentage
# Experimental: 1×10^8 cells of a normal human fetal skin fibroblast (Clontech, catalogue No. CC-2509) were cultured at 37° C. overnight under 5% CO2 atmosphere. After the cultured cells were washed with a sodium phosphate buffer (hereinafter, referred to as PBS) twice, 3 ml of PBS was added thereto and the cells were scraped away the wall of a vessel using a cell scraper (Nalgen, catalogue No. 179693). The scraped cells were collected by centrifugation (1,500 rpm, 4° C., 15 min), and these were suspended in 20 ml of PBS and centrifuged again. To the resulting precipitates were added 11 ml of Solution 2 and 4.8 μl of pronase of DNA Extraction Kit (Stratagene, catalogue No. 200600). After shaken at 60° C. for 1 hour, the resulting mixture was allowed to stand in ice for 10 minutes. Then, 4 ml of Solution 3 of the kit was added to the mixture. After mixed, the mixture was allowed to stand in ice for 5 minutes and then centrifuged (3,000 rpm, 4° C., 15 min) to recover a supernatant. To the recovered supernatant was added 2 μl of RNase per 1 ml of the supernatant and the mixture was allowed to stand at 37° C. for 15 minutes. To the mixture was added 2-fold volume of ethanol. After mixed, a white thread-like substance (genomic DNA) appeared and the substance was recovered. The recovered genomic DNA was washed with 70% ethanol and then air-dried. The air-dried genomic DNA was dissolved in 500 μl of 10 mM Tris-HCl, 1 mM EDTA (pH 8.0) (hereinafter, referred to as TE).
# The resulting genomic DNA solution (the amount equivalent to 1 μg of genomic DNA), each 1 μl (10 pmol/μl) of an oligonucleotide consisting of the nucleotide sequence represented by SEQ ID No:1 and an oligonucleotide consisting of the nucleotide sequence represented by SEQ ID No:2, 29 μL of distilled water, 5 μl of the buffer attached to TaKaRa LA Taq (TAKARA SHUZO, catalogue No. RR002A), 5 μL of a Mg^2+ solution, 5 μL of a dNTP mixture and 0.5 μl of TaKaRa LA Taq (TAKARA SHUZO, catalogue No. RR002A) were mixed. After the resulting mixed solution was incubated at 94° C. for 5 minutes, the mixed solution was subjected to 30 cycles, in which one cycle consists of incubation at 94° C. for 1 minute, at 60° C. for 1 minute and then at 72° C. for 1 minute. The mixed solution was electrophoresed on a 2% agarose gel to recover about 0.5 kb of a DNA. The recovered DNA was treated with phenol/chloroform and then precipitated with ethanol to recover the DNA. The resulting DNA was dissolved in ultrapure water. To this solution were added 2.5 μl of NheI and 2.5 μl of HindIII, and then incubated at 37° C. for 3 hours. Then, the solution was electrophoresed on a 2% agarose gel to recover about 3.5 kb of a DNA. The recovered DNA was precipitated with ethanol to recover again the DNA (hereinafter, referred to as the collagen promoter DNA).
# On the other hand, the vector pGL3 (Promega, catalogue No. E1751) having the nucleotide sequence encoding firefly luciferase was digested with NheI and HindIII, and then subjected to agarose gel electrophoresis as described above to recover about 5 kb of a DNA. The recovered DNA was precipitated with ethanol to recover the DNA again. To the recovered DNA were added 44 μl of distilled water, 5 μl of Buffer attached to Alkaline Phosphatase (TAKARA SHUZO, catalogue No. 2120A) and 1 μl of Alkaline Phosphatase (TAKARA SHUZO, catalogue No. 2120A). The mixed solution was incubated at 65° C. for 30 minutes. Then, the mixed solution was treated with phenol/chloroform twice, and precipitated with ethanol to recover the DNA (hereinafter referred to as the Luc vector DNA). Then, after about 20 ng of the collagen promoter DNA and about 20 ng of the Luc vector DNA were mixed, the same amount of a DNA Ligation kit Ver2 enzyme solution was added and this was incubated overnight at 16° C. To the mixed solution was added Escherichia coli 5Hdα (TOYOBO, catalogue No. DNA-903), this was allowed to stand in ice for 30 minutes, and then incubated at 42° C. for 45 seconds. […]
row,SMILES,inhibition at 1 µM [%]
1,"N#CCOc1ccc(C=CC(=O)c2c(O)c3ccccc3[nH]c2=O)cc1 [Compound No. (13e), 4-hydroxy-3-[3-[4-(cyanomethoxy)phenyl]-1-oxo-2-propenyl]-2(1H)-quinolinone]",≥ 70
2,"COCC(=O)Nc1cccc(C=CC(=O)c2c(O)cc(C)[nH]c2=O)c1 [Compound No. (18a), 4-hydroxy-3-[3-[3-(methoxyacetylamino)phenyl]-1-oxo-2-propenyl]-6-methyl-2(1H)-pyridinone]",≥ 70
3,"COCCNC(=O)Nc1cccc(C=CC(=O)c2c(O)cc(C)[nH]c2=O)c1 [Compound No. (22a), 4-hydroxy-3-[3-[3-[(2-methoxyethyl)aminocarbonylamino]phenyl]-1-oxo-2-propenyl]-6-methyl-2(1H)-pyridinone]",≥ 70
4,"COC(=O)COc1cccc(C=CC(=O)c2c(O)cc(C)[nH]c2=O)c1 [Compound No. (7a), 4-hydroxy-3-[3-[3-[(methoxycarbonyl)methoxy]phenyl]-1-oxo-2-propenyl]-6-methyl-2(1H)-pyridinone]",≥ 70
5,"CS(=O)(=O)NC(=O)c1cccc(C=CC(=O)c2c(O)c3ccccc3[nH]c2=O)c1 [Compound No. (26e), 4-hydroxy-3-[3-[3-[(methanesulfonyl)aminocarbonyl]phenyl]-1-oxo-2-propenyl]-2(1H)-quinolinone]",≥ 70
6,"COCCOC(=O)Nc1cccc(C=CC(=O)c2c(O)c3ccccc3[nH]c2=O)c1 [Compound No. (21e), 4-hydroxy-3-[3-[3-[(2-methoxyethoxy)carbonylamino]phenyl]-1-oxo-2-propenyl]-2(1H)-quinolinone]",≥ 70
7,"Cc1cc(O)c(C(=O)C=Cc2cccc(OCC#N)c2)c(=O)n1C [Compound No. (11a), 4-hydroxy-3-[3-[3-(cyanomethoxy)phenyl]-1-oxo-2-propenyl]-1,6-dimethyl-2(1H)-pyridinone]",≥ 70
8,"N#CCNC(=O)c1cccc(C=CC(=O)c2c(O)c3ccccc3[nH]c2=O)c1 [Compound No. (33e), 4-hydroxy-3-[3-[3-[[(cyanomethyl)amino]carbonyl]phenyl]-1-oxo-2-propenyl]-2(1H)-quinolinone]",≥ 70
9,"Cc1cc(O)c(C(=O)C=Cc2ccc(OCC#N)cc2)c(=O)[nH]1 [Compound No. (13a), 4-hydroxy-3-[3-[4-(cyanomethoxy)phenyl]-1-oxo-2-propenyl]-6-methyl-2(1H)-pyridinone]",≥ 70
10,"Cc1cc(O)c(C(=O)C=Cc2cccc(C(=O)NCC#N)c2)c(=O)[nH]1 [Compound No. (35a), 4-hydroxy-3-[3-[3-[(cyanomethyl)aminocarbonyl]phenyl]-1-oxo-2-propenyl]-6-methyl-2(1H)-pyridinone]",≥ 70
11,"Cn1c(=O)c(C(=O)C=Cc2cccc(OCC#N)c2)c(O)c2ccccc21 [Compound No. (11e), 1-methyl-4-hydroxy-3-[3-[3-(cyanomethoxy)phenyl]-1-oxo-2-propenyl]-2(1H)-quinolinone]",≥ 70
12,"COC(=O)CNC(=O)c1cccc(C=CC(=O)c2c(O)c3ccccc3[nH]c2=O)c1 [Compound No. (28e), 4-hydroxy-3-[3-[3-[[(methoxycarbonylmethyl)amino]carbonyl]phenyl]-1-oxo-2-propenyl]-2(1H)-quinolinone]",≥ 70
13,"COCC(=O)Nc1ccc(C=CC(=O)c2c(O)cc(C)[nH]c2=O)cc1 [Compound No. (20a), 4-hydroxy-3-[3-[4-(methoxyacetylamino)phenyl]-1-oxo-2-propenyl]-6-methyl-2(1H)-pyridinone]",≥ 70

# Test system: mRNA of Type I collagen gene in renal glomerulus
# Experiment: mRNA of Type I collagen gene in renal glomerulus of anti-Thy-1 antibody-administered rats (improvement of chronic renal failure)
# Type: in vivo, rat
# Details: Example 5; anti-Thy-1 antibody rats; 15 mg/kg/day orally for 7 days in corn oil
# Experimental: IgG was purified from an ascites-lyophilized powder (CEDARLANE, lot No. 05122) containing an anti-rat CD90 (Thy1.1) monoclonal antibody using MAbTrap kit (Amersham Biosciences, catalogue No. 17-1128-01).
# 6 ml of a binding buffer was added to 3 ml of ascites to sufficiently recover it, and this was passed through a 0.22 μm filter. The resulting solution was applied to a pre-bufferized column, and the column was then washed with 10 ml of a binding buffer. Thereafter, the column was eluted with 5 ml of an elution buffer. From washing, each 1 ml was fractionated, and the protein concentration of each fraction was measured using bovine serum albumin as a standard. A single peak was confirmed from an elution pattern, and an IgG fraction was dialyzed against a physiological saline overnight at 4° C. The protein concentration of the resulting anti-Thy-1 antibody (IgG) was calculated.
# The present compounds represented by the compound numbers (28a) (hereinafter, referred to as the present compound (28a)), the present compound represented by a compound number (30a) (hereinafter, referred to as the present compound (30a)), the present compound represented by a compound number (33a) (hereinafter, referred to as the present compound (33a)), the present compound represented by a compound number (10e) (hereinafter, referred to as the present compound (10e)), the present compound represented by a compound number (18e) (hereinafter referred to as the present compound (18e)), the present compound represented by a compound number (31e) (hereinafter, referred to as the present compound (31e)) and a corn oil which is a medium were weighed. These were mixed using a mortar and a pestle to prepare a […]. Using four 7-week old male Wistar rats [Nippon Charles River] per group, 60 μg/ml of the anti-Thy-1 antibody (IgG) or a physiological saline was intravenously injected via a tail vein at 5 ml/kg. […] A dose of the present compound was 15 mg/kg/day.
# On the next day of final administration, a rat reared as described in the above (2) was slaughtered by collection of whole blood, and kidneys were isolated. A whole RNA was separated from the cortex of the isolated kidney using RNeasy Mini Kit (QIAGEN, catalogue No. 74106). To 5 μl (50 ng) of the separated whole RNA were added 1 μl of 20 μM oligo dT and 4 μl of RNase-free distilled water. After the mixture was incubated at 65° C. for 5 minutes, it was immediately ice-cooled. To 10 μl of the solution were added 4 μl of 5× buffer, 2.4 μl of MgCl2, 1 μl of 10 mM dNTP, 1 μl of RNasin, 1 μl of Improm II and 0.6 μl of RNase-free distilled water (all available from Promega), and a reverse transcription reaction was performed under the condition of at 25° C. for 5 minutes, at 42° C. for 1 hour, and at 70° C. for 15 minutes.
# Into 5 μl of the reverse transcription reaction solution were mixed each 2 μl of each 1.25 pmol/μl of primers represented by SEQ ID NOS: 3 and 4, 1.25 μl of a probe (FAM-ctcgccttca tgcgcctgct agc-TAMRA) for detecting DNA of a Type I collagen gene represented by SEQ ID No:5, each 0.25 μl of Rodent GAPDH primers, 0.25 μl of a Rodent GAPDH probe, 12.5 μl of TaqMan Universal PCR Master Mix (all available from Applied Biosystem) and 1.5 μl of sterilized water in a well of Optical 96-Well Reaction Plate (Applied Biosystem, catalogue No. N801-0560). As a standard, in place of 5 μl of the reverse transcription reaction solution, each 5 μl of 500, 250, 125, 62.5, 31.25, 15.625 ng/μl rat renal cortex cDNA which had been prepared in advance was used. Thereafter, using Gene Amp 7900 (Applied Biosystem), PCR was performed under the condition of at 50° C. for 5 minutes, and 40 cycles in which one cycle is at 95° C. for 15 seconds and at 60° C. for 1 minute. […]
row,SMILES,ability to improve chronic renal failure
1,"COCCNC(=O)c1ccc(C=CC(=O)c2c(O)cc(C)[nH]c2=O)cc1 [Compound No. (33a), 4-hydroxy-3-[3-[4-[(2-methoxyethyl)aminocarbonyl]phenyl]-1-oxo-2-propenyl]-6-methyl-2(1H)-pyridinone]",have the ability to improve chronic renal failure

# Same assay, conditions: Table 3; Type I collagen amount/GAPDH amount, renal cortex; anti-Thy-1 antibody +; 15 mg/kg/day orally for 7 days in corn oil; Wistar rats; control group 3.4, normal group 1.9; test results p < 0.05
row,SMILES,mRNA of collagen gene
1,"COCCNC(=O)c1ccc(C=CC(=O)c2c(O)cc(C)[nH]c2=O)cc1 [Compound No. (33a), 4-hydroxy-3-[3-[4-[(2-methoxyethyl)aminocarbonyl]phenyl]-1-oxo-2-propenyl]-6-methyl-2(1H)-pyridinone]",2.4
